Measured values taken from patent publication US20090215752A1, “Compounds, preparation and therapeutic use thereof” (priority 2005, published 2009).

Each compound was assayed against T1, PDE2 (Homo sapiens, UniProt O00408) (assay: Inhibition of PDE2 (radioenzymatic phosphodiesterase assay)). Conditions: Table 1; 10 μM compound; 1 μM cyclic AMP.
T1 construct: PDE2 was isolated from human platelets, provided by Etablissement Français du Sang-Alsace; tissue Etablissement Français du Sang-Alsace; host or cells: human platelets
T1 sequence (O00408 whole entry): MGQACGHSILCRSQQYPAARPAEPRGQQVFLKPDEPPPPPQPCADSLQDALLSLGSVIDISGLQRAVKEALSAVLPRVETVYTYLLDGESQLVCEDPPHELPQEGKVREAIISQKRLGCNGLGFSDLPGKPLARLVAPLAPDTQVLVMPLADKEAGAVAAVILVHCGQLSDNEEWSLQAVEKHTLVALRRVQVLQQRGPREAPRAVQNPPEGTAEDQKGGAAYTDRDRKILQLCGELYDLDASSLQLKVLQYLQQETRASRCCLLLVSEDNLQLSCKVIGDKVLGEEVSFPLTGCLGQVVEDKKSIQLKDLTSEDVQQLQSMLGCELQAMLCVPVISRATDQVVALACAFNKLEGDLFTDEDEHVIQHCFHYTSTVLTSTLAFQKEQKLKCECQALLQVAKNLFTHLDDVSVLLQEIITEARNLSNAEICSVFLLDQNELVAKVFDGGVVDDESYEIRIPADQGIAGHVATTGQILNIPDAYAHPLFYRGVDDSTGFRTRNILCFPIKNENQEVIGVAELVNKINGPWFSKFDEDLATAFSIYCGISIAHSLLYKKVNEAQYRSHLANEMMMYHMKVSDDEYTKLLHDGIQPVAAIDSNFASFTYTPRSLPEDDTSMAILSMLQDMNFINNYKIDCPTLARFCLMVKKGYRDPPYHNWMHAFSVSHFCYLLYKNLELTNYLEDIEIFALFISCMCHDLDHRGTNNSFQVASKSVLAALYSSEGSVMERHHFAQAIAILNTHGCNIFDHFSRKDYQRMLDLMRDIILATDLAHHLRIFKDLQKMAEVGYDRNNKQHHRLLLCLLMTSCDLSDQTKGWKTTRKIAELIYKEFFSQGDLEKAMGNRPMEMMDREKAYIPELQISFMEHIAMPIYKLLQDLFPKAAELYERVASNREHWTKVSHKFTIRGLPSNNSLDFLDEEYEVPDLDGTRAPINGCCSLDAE
Type: biochemical
Protocol: 2.1.1. Isolation of Phosphodiesterases from Smooth Muscle A 3 g segment of bovine aortic media cut into pieces with scissors was homogenized with an ultra-turrax then a potter glass/glass homogenizer in 7 volumes by weight of buffer A containing a protease inhibitor cocktail (20 mM Tris-HCl, 0.25 M saccharose, 2 mM magnesium acetate, 1 mM dithiothreitol, 5 mM EGTA, 2000 U/ml aprotinin, 10 mg/l leupeptin and 10 mg/l soya trypsic inhibitor). The homogenizate was centrifuged at 105,000 g for 1 hour. The supernatant was loaded on a DEAE-Sephacel column (15×1.6 cm) pre-equilibrated with buffer B (buffer A without the saccharose, EGTA and protease inhibitors). The column was washed until there was no detectable absorption at 280 nm, then eluted with a linear gradient of NaCl (0-0.5 M) in buffer B. 3-ml fractions were collected and enzyme activity was determined under the conditions described hereinbelow to localize the different enzymes PDE1, PDE3, PDE4 and PDE5 which were aliquoted and frozen at −80° C. (Lugnier et al., Biochem. Phamacol., 1986, 35: 1746-1751). PDE2 was isolated from human platelets, provided by Etablissement Français du Sang-Alsace, according to Kameni Tcheudji J F et al., (J. Mol. Biol. 2001; 310: 181-791), and stored until use at −80° C. in small aliquots.
Cyclic nucleotide phosphodiesterase activity was determined by a radioenzymatic method using tritium-labelled cyclic GMP or AMP (1 μM) as substrate (Lugnier et al., 1986). ^3H-labelled adenosine or guanosine monophosphate formed by hydrolysis of the radiolabelled cyclic nucleotide was then converted to ^3H-labelled adenosine or guanosine in a second reaction with […] in excess. The nucleoside formed was separated from the nucleotides by anion exchange chromatography. Nucleoside radioactivity was determined by liquid scintillation counting. Enzymatic incubations were carried out under conditions allowing no more than 15% hydrolysis of the substrate; each point was performed in duplicate.
The concentration of substance which inhibits enzymatic activity by 50% (IC50) at 1 μM cyclic AMP was calculated by nonlinear regression from the experimental values of hydrolysis rate (Prism, GraphPad).

| Compound | PDE2 percentage inhibition at 10 μM [%] |
| --- | --- |
| COc1cc2c(c(OC)c1-c1cccnc1)C(c1cccc(C#N)c1)=NCC(=O)N2 [Compound 4] | 4 |
| COc1cc2c(c(OC)c1-c1cccnc1)C(c1cccc(C(N)=O)c1)=NCC(=O)N2 [Compound 19, 3-(6,8-Dimethoxy-2-oxo-7-pyridin-3-yl-2,3-dihydro-1H-benzo[e][1,4]diazepin-5-yl)-benzamide] | 27 |

Same assay, conditions: Table 1; 10 μM compound; 1 μM cyclic AMP; read-out: PDE2 percentage inhibition at 10 μM

| Compound | inhibition at 10 µM [%] |
| --- | --- |
| COc1cc2c(c(OC)c1-c1ccccc1)C(c1ccccc1)=NCC(=O)N2 [Compound 3, 6,8-Dimethoxy-5,7-diphenyl-1,3-dihydro-benzo[e][1,4]diazepin-2-one] | 25 |
| COc1cc2c(c(OC)c1-c1ccccc1)C(c1cccc(Br)c1)=NCC(=O)N2C [Compound 10, 5-(3-Bromo-phenyl)-6,8-dimethoxy-1-methyl-7-phenyl-1,3-dihydro-benzo[e][1,4]diazepin-2-one] | 86 |

Same assay, conditions: read-out: PDE2 percentage inhibition at 10 μM, Table 1; 10 μM compound; 1 μM cyclic AMP

| Compound | inhibition at 10 µM [%] |
| --- | --- |
| CCN1C(=O)CN=C(c2cccc(C#N)c2)c2c1cc(OC)c(-c1ccccc1)c2OC [Compound 11, 3-(6,8-Dimethoxy-2-oxo-7-phenyl-1-ethyl-2,3-dihydro-1H-benzo[e][1,4]diazepin-5-yl)-benzonitrile] | 10 |
| CCCN1C(=O)CN=C(c2cccc(C#N)c2)c2c1cc(OC)c(-c1ccccc1)c2OC [Compound 12, 3-(6,8-Dimethoxy-2-oxo-7-phenyl-1-propyl-2,3-dihydro-1H-benzo[e][1,4]diazepin-5-yl)-benzonitrile] | 17 |
| COc1cc2c(c(OC)c1-c1ccccc1)C(c1cccc(C#N)c1)=NCC(=O)N2CC1CC1 [Compound 13, 3-(1-Cyclopropylmethyl-6,8-dimethoxy-2-oxo-7-phenyl-2,3-dihydro-1H-benzo[e][1,4]diazepin-5-yl)-benzonitrile] | 20 |
| COc1cc2c(c(OC)c1-c1ccccc1)C(c1cccc(C#N)c1)=NCC(=O)N2Cc1ccccc1 [Compound 14, 3-(1-Benzyl-6,8-dimethoxy-2-oxo-7-phenyl-2,3-dihydro-1H-benzo[e][1,4]diazepin-5-yl)-benzonitrile] | 9 |
| COc1cc2c(c(OC)c1-c1ccccc1)C(c1cccc(C#N)c1)=NCC(=O)N2Cc1ccc(C(F)(F)F)cc1 [Compound 15, 3-[6,8-Dimethoxy-2-oxo-7-phenyl-1-(4-trifluoromethyl-benzyl)-2,3-dihydro-1H-benzo[e][1,4]diazepin-5-yl]-benzonitrile] | 9 |
| COc1cc2c(c(OC)c1-c1ccccc1)C(c1cccc(C#N)c1)=NCC(=O)N2CCCc1ccccc1 [Compound 16, 3-[6,8-Dimethoxy-2-oxo-7-phenyl-1-(3-phenyl-propyl)-2,3-dihydro-1H-benzo[e][1,4]diazepin-5-yl]-benzonitrile] | 18 |
| CCN1C(=O)CN=C(c2cccc(C(N)=O)c2)c2c1cc(OC)c(-c1ccccc1)c2OC [Compound 21, 3-(6,8-Dimethoxy-2-oxo-7-phenyl-1-ethyl-2,3-dihydro-1H-benzo[e][1,4]diazepin-5-yl)-benzamide] | 31 |
| CCCN1C(=O)CN=C(c2cccc(C(N)=O)c2)c2c1cc(OC)c(-c1ccccc1)c2OC [Compound 22, 3-(6,8-Dimethoxy-2-oxo-7-phenyl-1-propyl-2,3-dihydro-1H-benzo[e][1,4]diazepin-5-yl)-benzamide] | 16 |
| COc1cc2c(c(OC)c1-c1ccccc1)C(c1cccc(C(N)=O)c1)=NCC(=O)N2CC1CC1 [Compound 23, 3-(1-Cyclopropylmethyl-6,8-dimethoxy-2-oxo-7-phenyl-2,3-dihydro-1H-benzo[e][1,4]diazepin-5-yl)-benzamide] | 15 |
| COc1cc2c(c(OC)c1-c1ccccc1)C(c1cccc(C(N)=O)c1)=NCC(=O)N2Cc1ccccc1 [Compound 24, 3-(1-Benzyl-6,8-dimethoxy-2-oxo-7-phenyl-2,3-dihydro-1H-benzo[e][1,4]diazepin-5-yl)-benzamide] | 18 |
